Measurements: the supplement of paper PMC12592484

Key:
Test in all cases: drug sensitivity score (DSS2, normalised partial AUC of dose-response, 72 h CellTiter-Glo viability) (DSS (dimensionless)); higher = more sensitive (stronger growth inhibition / cytotoxicity); extreme values may be limits of the assay
CAF#2 = tested on: CAF#2 (primary prostate cancer-associated fibroblasts of iCAF-like type)
How it was run: (§1)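 Viability of low-passage primary prostate cancer-associated fibroblasts, PF179T, WPMY-1, LNCaP and 22Rv1 cells was read by CellTiter-Glo 2.0 luminescence 72 h after seeding onto compounds pre-dispensed in 384-well plates at five doses over a 10,000-fold range. Readings were scaled between vehicle and positive-control wells. Sensitivity is reported as a drug sensitivity score from BREEZE, namely a partial area under the fitted logistic curve divided by the log of its upper asymptote, where higher means more sensitive.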

PF179T = tested on: PF179T
How it was run: as §1

LNCAP = tested on: LNCAP
How it was run: as §1

CAF#7 = tested on: CAF#7 (primary prostate cancer-associated fibroblasts of myCAF-like type)
How it was run: as §1

CAF#6 = tested on: CAF#6 (primary prostate cancer-associated fibroblasts of iCAF-like type)
How it was run: as §1

CAF#4 = tested on: CAF#4 (primary prostate cancer-associated fibroblasts of iCAF-like type)
How it was run: as §1

CAF#5 = tested on: CAF#5 (primary prostate cancer-associated fibroblasts of myCAF-like type)
How it was run: as §1

WPMY-1 = tested on: WPMY-1
How it was run: as §1

22Rv1 = tested on: 22Rv1
How it was run: as §1

CAF#1 = tested on: CAF#1 (primary prostate cancer-associated fibroblasts of myCAF-like type)
How it was run: as §1

CAF#3 = tested on: CAF#3 (primary prostate cancer-associated fibroblasts of myCAF-like type)
How it was run: as §1

Row | SMILES | drug sensitivity score (CAF#2) | drug sensitivity score (PF179T) | drug sensitivity score (LNCAP) | drug sensitivity score (CAF#7) | drug sensitivity score (CAF#6) | drug sensitivity score (CAF#4) | drug sensitivity score (CAF#5) | drug sensitivity score (WPMY-1) | drug sensitivity score (22Rv1) | drug sensitivity score (CAF#1) | drug sensitivity score (CAF#3)
1 | CC[C@H](CC#N)OC(=O)N[C@@H](C)c1cccc(NC(=O)Nc2ccc(-c3cnco3)c(OC)c2)c1 [AVN944] (tested concentration range 1-10000 nM) | 16.1 | 14.9 | 18.1 | 12.1 | 11.4 | 11.4 | 11.4 | 19 | 18.7 | 8.5 | 8.5
2 | COc1cc(N2CCN(C)CC2)ccc1Nc1nccc(-c2cn(C)c3cnccc23)n1 [AZ191] (tested concentration range 1-10000 nM) | 5.7 | 2.7 | 3.5 | 2.1 | 2.3 | 1.9 | 4.6 | 6.8 | 6.4 | 6 | 7.1
3 | COc1cc(OC2CCN(C)CC2)ccc1Nc1ncc2c(n1)n(C1CCCC1)c(=O)n2C [AZ 3146] (tested concentration range 1-10000 nM) | 4.3 | 2.3 | 4.6 | 2.8 | 1.6 | 0.8 | 0.7 | 4.8 | 7.5 | 1.8 | 3.1
4 | COc1cc2ncnc(Nc3cccc(Cl)c3F)c2cc1OC(=O)N1CCN(C)C[C@H]1C [AZD3759] (tested concentration range 0.1-1000 nM) | 0 | 0 | 0 | 0 | 0 | 0 | 0 | 0 | 0 | 0 | 0.4
5 | Cc1[nH]nc(C(F)(F)F)c1Cc1sc2c(c1C(=O)N1C[C@](C)(O)CO1)c(=O)n(C)c(=O)n2C(C)C [AZD3965] (tested concentration range 0.1-1000 nM) | 0.1 | 0 | 10.5 | 0 | 0 | 0 | 0 | 0 | 0 | 0.1 | 0
6 | COc1cc(CCc2cc(NC(=O)c3ccc(N4CC(C)NC(C)C4)cc3)n[nH]2)cc(OC)c1 (configuration not stated) [AZD4547] (tested concentration range 0.1-1000 nM) | 2.5 | 3.5 | 0.3 | 13.1 | 5.8 | 0.6 | 1.3 | 0.2 | 0 | 1.1 | 6.7
7 | CN(C)C(=O)c1ccc(S(=O)(=O)c2ccc(NC(=O)[C@@](C)(O)C(F)(F)F)c(Cl)c2)cc1 [AZD7545] (tested concentration range 1-10000 nM) | 0 | 0 | 2.7 | 0 | 0 | 0 | 0 | 0.1 | 0.2 | 0 | 0.4
8 | Cc1ncc(-c2ccnc(Nc3ccc(S(C)(=O)=O)cc3)n2)n1C(C)C [AZD-5438] (tested concentration range 1-10000 nM) | 3.9 | 2.5 | 10.2 | 5.6 | 3 | 6.8 | 2.9 | 8.7 | 7.6 | 4.1 | 4
9 | C[C@@H](Nc1cc(F)cc(F)c1)c1cc(C(=O)N(C)C)cc2c(=O)cc(N3CCOCC3)oc12 [AZD-8186] (tested concentration range 0.1-1000 nM) | 3.4 | 6.3 | 12.7 | 3.9 | 2.2 | 2.8 | 2.8 | 1 | 1 | 2.9 | 4.2
10 | CCN1CCN(Cc2ccc(Nc3ncc(F)c(-c4cc(F)c5nc(C)n(C(C)C)c5c4)n3)nc2)CC1 [Abemaciclib] (tested concentration range 0.2-2500 nM) | 5.6 | 0.6 | 8.7 | 0 | 0.1 | 0.2 | 0 | 6 | 11 | 0 | 0
11 | CN(C)Cc1c(C(=O)NCCOc2ccc(C(=O)NO)cc2)oc2ccccc12 [Abexinostat] (tested concentration range 1-10000 nM) | 12.2 | 10.6 | 19.5 | 9 | 9.9 | 6.9 | 9.3 | 21.6 | 19.8 | 10 | 8.9
12 | C[C@]12CC[C@H](O)CC1=CC[C@@H]1[C@@H]2CC[C@]2(C)C(c3cccnc3)=CC[C@@H]12 [Abiraterone] (tested concentration range 0.5-5000 nM) | 0 | 0 | 1.3 | 0 | 0 | 0 | 1.5 | 0 | 0 | 0 | 0
